# Laboratory results from patent US20210138090A1, “uPAR targeting peptide for use in peroperative optical imaging of invasive cancer” (FLUOGUIDE A/S, priority 2014, published 2021).
# Square brackets hold non-standard residues; d marks the D form. Primed or numbered codes have the meaning given here. Peptide text beside a SMILES is read from it. * marks the point of attachment. ξ: configuration not given here. X1 = CC1(C)C(/C=C/C=C/C=C/C=C2\N(CCCCCC(=O)*)c3ccc4ccccc4c3C2(C)C)=[N+](CCCCS(=O)(=O)[O-])c2ccc3ccccc3c21; Cha = N[C@@H](CC1CCCCC1)C(=O)O; IRDye800CW′ = not defined here; ξR = N=C(N)NCCCC(N)C(=O)O; ξF = NC(Cc1ccccc1)C(=O)O; ξE = NC(CCC(=O)O)C(=O)O; ξD = NC(CC(=O)O)C(=O)O; AEEA = NCCOCCOCC(=O)O; ξS = NC(CO)C(=O)O
# How the values were obtained:
# uPAR wt = uPAR wt (Homo sapiens, UniProt Q03405); experiment: SPR inhibition of uPAR binding to immobilized uPA
# Protocol: (§1) Covalent immobilization of purified human prouPA^S356A—was accomplished by injecting 12.5 μg/ml protein dissolved in 10 mM sodium acetate (pH 5.0) over a CM5 chip that had been pre-activated with NHS/EDC (N-ethyl-N′-[3-[…])propyl]-carbodiimide), aiming at a surface density of >5000 resonance units (RU) corresponding to 100 fmols/mm^2. After coupling the sensorchip was deactivated with 1 M ethanolamine. Binding of purified human uPAR as analyte was measured from 4 nM to 0.25 nM at 20° C. using 10 mM HEPES, 150 mM NaCl, 3 mM EDTA (pH 7.4) containing 0.05% (v/v) surfactant P20 as running buffer at a flow rate of 50 μl/min. In between cycles the sensorchip was regenerated by two consecutive 10-μl injections of 0.1 M acetic acid/HCl (pH 2.5) in 0.5 M NaCl. The inhibition of 3-fold dilutions of the compounds in question was measured for 4 nM uPAR with identical running conditions. All experiments were performed on a BiacoreT200 instrument.
# (§2) For each inhibition peptide inhibition profile of uPAR binding to immobilized uPA there has been run a preceding standard curve and all calculations are based on the that standard curve.
# (§3) Surface plasmon resonance (SPR) was applied to determine the […]-value of IRDye800-AE344 on the uPAR⋅uPA interaction in solution using a Biacore 3000 instrument essentially as described. In brief; pro-uPA^S356A, which is the natural ligand for uPAR. […] The analysis was carried out by measuring vobs of a fixed uPAR concentration (2 nM) incubated with a 3-fold dilution series of IRDye800-AE344 (ranging from 0.076 nM to 1.5 μM) for 300 sec at 20° C. with a flow rate of 50 μL/min. A standard curve was measured in parallel (2-fold dilution of uPAR covering 0.06 nM to 2 nM) including one repeated concentration point at the end to validate the biological integrity of the sensor chip. Running buffer contained 10 mM HEPES, 150 mM NaCl, 3 mM EDTA and 0.05% (v/v) surfactant P20, pH 7.4. The sensor chip was regenerated with two injections of 0.1 M acetic acid, 0.5 M NaCl. The parent nonamer peptide antagonist AE105 (Asp-Cha-Phe-D-Ser-D-Arg-Tyr-Leu-Trp-Ser-OH) was analyzed in parallel as positive control and the closed uPAR^H47C-N259C was used as negative control as its uPA binding cavity cannot accommodate AE105.
# purified uPAR = purified uPAR (Homo sapiens, UniProt Q03405); experiment: binding affinity towards purified uPAR (first example)
# [1] = comparison of fluorescence intensity of ICG and ICG-Glu-Glu-AE105; type: physicochemical; conditions: data not shown
# uPAR H47C-N259C = uPAR H47C-N259C (Homo sapiens, UniProt Q03405, H69C/N281C); experiment: SPR inhibition of uPAR binding to immobilized uPA, constrained uPAR variant (negative control); conditions: SPR, constrained uPAR variant, negative control; read-out: IC50 uPAR H47C-N259C
# Protocol: as §1, §2
# as §3, with “Running buffer contained 10 mM HEPES, 150 mM NaCl, 3 mM EDTA and 0.05% (v/v) surfactant P20, pH 7.4. The sensor chip was regenerated with two injections of 0.1 M acetic acid, 0.5 M NaCl.” left out
# U87MG tumours [2] = experiment: optical imaging of U87MG tumour-bearing mice, Fluobeam camera; type: in vivo; conditions: 10 nmol i.v.
# Protocol: (§4) All animal experiments were performed under a protocol approved by the Animal Research Committee of the Danish Ministry of Justice. 5*10^6 U87MG cells were suspended in 200 μl PBS and inoculated on both flanks of the mouse. When the tumours reached an appropriate size the mice were imaged with AE105-Glu-Glu-ICG.
# After imaging with IVIS Lumina XR the mouse was moved to a Fluobeam setup and imaged with appropriate acquisition time.
# (§5) The TBR values were calculated by drawing a ROI over each tumor and place the background ROI in an area with constant background signal.
# U87MG tumours [3] = experiment: optical imaging of U87MG tumour-bearing mice, IVIS Lumina XR; type: in vivo; conditions: 10 nmol i.v., 15 hr post injection; for max radiance for the tumors / tumor-to-background (TBR) ratio: IVIS Lumina XR; for tumor-to-background (TBR) ratio: n=10
# Protocol: as §4
# The mice were injected with 10 nmol of AE105-Glu-Glu-ICG or ICG i.v., and imaged 15 hr post injection. Before scan the mice were anaesthetized with 2% isofluran and positioned in a prone position. For imaging the IVIS Lumina XR and the acquisition software Living Image were used. The excitation filter was set to 710 nm and the emission filter was set in the ICG position. Acquisition was set to auto-settings to achieve the best acquisition as possible.
# as §5
# [4] = system: orthotopic GBM (U-87 MG-luc2 cells); experiment: in vivo binding specificity in orthotopic GBM (blocking with AE120, scrambled probe); design: species or system mice; conditions: 3 nmol, 1 h, no blocking
# Protocol: The target specificity to uPAR was evaluated by two different methods: competitive blocking with the uPAR targeting peptide AE120 ((DChaFsrYLWSG)2-βAK) and IRDye800 conjugated to a scrambled peptide, AE354 (IRDye800CW-Glu-Glu-NH—CH2—CH2—O—CH2—CH2—O—CH2—CO—NH—CH2—CH2—O—CH2—CH2—O—CH2—CO-Asp-Cha-Glu-(D)Ser-(D)Arg-Tyr-Leu-Glu-Ser-OH) with similar peptide length as the active peptide. The competitive blocking dose of 1.4-2.8 mg AE120 was injected intraperitoneally 15-30 min prior to intravenous injection of 3 nmol IRDye800CW-AE344 and imaged at 1 h (n=5). The scrambled peptide was administered at 3 nmol and the animals were imaged after 1 h (n=4).
# Images were analyzed and processed in ImageJ 1.52a, NIH, USA. Signal measurements were performed on the raw images generated by the Fluoptics system. Tumor signal was measured as a mean fluorescence intensity of the whole tumor and background signal was measured as the mean of a representative area with no tumor on the contralateral hemisphere. Presented pictures are contrast enhanced in ImageJ with the Contrast Enhancement (Saturated pixels: 0.3%).
# Sequence of uPAR wt (Q03405 23-305 limits assumed): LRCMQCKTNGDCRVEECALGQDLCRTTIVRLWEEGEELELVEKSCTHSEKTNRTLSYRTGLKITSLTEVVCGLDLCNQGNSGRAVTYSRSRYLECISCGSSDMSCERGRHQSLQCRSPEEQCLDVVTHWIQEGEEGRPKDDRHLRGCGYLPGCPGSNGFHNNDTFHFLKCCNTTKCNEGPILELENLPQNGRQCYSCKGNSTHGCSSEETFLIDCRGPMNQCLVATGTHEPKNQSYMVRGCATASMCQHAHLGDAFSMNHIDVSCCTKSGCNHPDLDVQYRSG
# Sequence of purified uPAR (Q03405 23-305): as the sequence (Q03405 23-305 limits assumed) above
# Sequence of uPAR H47C-N259C (Q03405 23-305 H69C/N281C limits assumed): as the sequence (Q03405 23-305 limits assumed) above, with H47C, N259C counted along it
compound,measurement,setting,value
"CC(C)C[C@H](NC(=O)[C@H](Cc1ccc(O)cc1)NC(=O)[C@@H](CCCNC(=N)N)NC(=O)[C@@H](CO)NC(=O)[C@H](Cc1ccccc1)NC(=O)[C@H](CC1CCCCC1)NC(=O)[C@H](CC(=O)O)NC(=O)COCCOCCNC(=O)[C@@H](N)CCC(=O)O)C(=O)N[C@@H](Cc1c[nH]c2ccccc12)C(=O)N[C@@H](CO)C(N)=O [AE348, Glu O2Oc Asp Cha Phe D-Ser D-Arg Tyr Leu Trp Ser-NH2] (H-E[AEEA]D[Cha]F[dS][dR]YLWS-NH2; N-terminus assumed)",IC50,uPAR wt,6.7 ± 0.2 nM
"CC(C)C[C@H](NC(=O)[C@H](Cc1ccc(O)cc1)NC(=O)[C@@H](CCCNC(=N)N)NC(=O)[C@@H](CO)NC(=O)[C@H](Cc1ccccc1)NC(=O)[C@H](CC1CCCCC1)NC(=O)[C@H](CC(=O)O)NC(=O)COCCOCCNC(=O)COCCOCCNC(=O)[C@H](CCC(=O)O)NC(=O)[C@@H](N)CCC(=O)O)C(=O)N[C@@H](Cc1c[nH]c2ccccc12)C(=O)N[C@@H](CO)C(N)=O [AE345, Glu Glu O2Oc O2Oc Asp Cha Phe D-Ser D-Arg Tyr Leu Trp Ser-NH2] (H-EE[AEEA][AEEA]D[Cha]F[dS][dR]YLWS-NH2; N-terminus assumed)",IC50,uPAR wt,31.8 ± 1.5 nM
"CC(C)C[C@H](NC(=O)[C@H](Cc1ccc(O)cc1)NC(=O)[C@@H](CCCNC(=N)N)NC(=O)[C@@H](CO)NC(=O)[C@H](Cc1ccccc1)NC(=O)[C@H](CC1CCCCC1)NC(=O)[C@H](CC(=O)O)NC(=O)[C@H](CCC(=O)O)NC(=O)[C@@H](N)CCC(=O)O)C(=O)N[C@@H](Cc1c[nH]c2ccccc12)C(=O)N[C@@H](CO)C(=O)O [AE349, Glu Glu Asp Cha Phe D-Ser D-Arg Tyr Leu Trp Ser-OH] (H-EED[Cha]F[dS][dR]YLWS-OH; N-terminus assumed)",IC50,uPAR wt,12.5 ± 0.6 nM
"CC(C)C[C@H](NC(=O)[C@H](Cc1ccc(O)cc1)NC(=O)[C@@H](CCCNC(=N)N)NC(=O)[C@@H](CO)NC(=O)[C@H](Cc1ccccc1)NC(=O)[C@H](CC1CCCCC1)NC(=O)[C@H](CC(=O)O)NC(=O)COCCOCCNC(=O)COCCOCCN)C(=O)N[C@@H](Cc1c[nH]c2ccccc12)C(=O)N[C@@H](CO)C(=O)O [AE346, O2Oc O2Oc Asp Cha Phe D-Ser D-Arg Tyr Leu Trp Ser-OH] (H-[AEEA][AEEA]D[Cha]F[dS][dR]YLWS-OH; N-terminus assumed)",IC50,uPAR wt,16.1 ± 0.9 nM
CC(C)C[C@H](NC(=O)[C@H](Cc1ccc(O)cc1)NC(=O)C(CCCNC(=N)N)NC(=O)C(CO)NC(=O)C(Cc1ccccc1)NC(=O)[C@H](CC1CCCCC1)NC(=O)C(CC(=O)O)NC(=O)C(CCC(=O)O)NC(=O)C(CCC(=O)O)NC(=O)CCCCCN1\C(=C/C=C/C=C/C=C/C2=[N+](CCCCS(=O)(=O)[O-])c3ccc4ccccc4c3C2(C)C)C(C)(C)c2c1ccc1ccccc21)C(=O)N[C@@H](Cc1c[nH]c2ccccc12)C(=O)N[C@@H](CO)C(=O)O (stereo partly drawn) [ICG-Glu-Glu-AE105] (X1-[ξE][ξE][ξD][Cha][ξF][ξS][ξR]YLWS-OH),IC50,purified uPAR,~80 nM
same,IC50,uPAR wt,142 ± 13 nM
same,decrease in fluorescence intensity for the conjugated probe compared with ICG,[1],2 fold
same,IC50,uPAR H47C-N259C,990 ± 50 nM
same,TBR,U87MG tumours [2],3.58±0.29
same,uptake in the tumor,U87MG tumours [3],high uptake
same,max radiance for the tumors,U87MG tumours [3],3.43E+08±0.34E+08 radiance efficiency
same,tumor-to-background (TBR) ratio,U87MG tumours [3],3.52±0.167
"CC(C)C[C@H](NC(=O)[C@H](Cc1ccc(O)cc1)NC(=O)[C@@H](CCCNC(=N)N)NC(=O)[C@@H](CO)NC(=O)[C@H](Cc1ccccc1)NC(=O)[C@H](CC1CCCCC1)NC(=O)[C@H](CC(=O)O)NC(=O)COCCOCCNC(=O)COCCOCCNC(=O)[C@H](CCC(=O)O)NC(=O)[C@@H](N)CCC(=O)O)C(=O)N[C@@H](Cc1c[nH]c2ccccc12)C(=O)N[C@@H](CO)C(=O)O [AE344, Glu Glu O2Oc O2Oc Asp Cha Phe D-Ser D-Arg Tyr Leu Trp Ser-OH] (H-EE[AEEA][AEEA]D[Cha]F[dS][dR]YLWS-OH; N-terminus assumed)",IC50,uPAR wt,5.7 ± 0.5 nM
"CC(C)C[C@H](NC(=O)[C@H](Cc1ccc(O)cc1)NC(=O)[C@@H](CCCNC(=N)N)NC(=O)[C@@H](CO)NC(=O)[C@H](Cc1ccccc1)NC(=O)[C@H](CC1CCCCC1)NC(=O)[C@H](CC(=O)O)NC(=O)COCCOCCNC(=O)[C@H](CCC(=O)O)NC(=O)[C@@H](N)CCC(=O)O)C(=O)N[C@@H](Cc1c[nH]c2ccccc12)C(=O)N[C@@H](CO)C(N)=O [AE347, Glu Glu O2Oc Asp Cha Phe D-Ser D-Arg Tyr Leu Trp Ser-NH2] (H-EE[AEEA]D[Cha]F[dS][dR]YLWS-NH2; N-terminus assumed)",IC50,uPAR wt,3.5 ± 0.1 nM
"CC(C)C[C@H](NC(=O)[C@H](Cc1ccc(O)cc1)NC(=O)[C@@H](CCCNC(=N)N)NC(=O)[C@@H](CO)NC(=O)[C@H](Cc1ccccc1)NC(=O)[C@H](CC1CCCCC1)NC(=O)[C@@H](N)CC(=O)O)C(=O)N[C@@H](Cc1c[nH]c2ccccc12)C(=O)N[C@@H](CO)C(=O)O [AE105, Asp-Cha-Phe-(D)Ser-(D)Arg-Tyr-Leu-Trp-Ser-OH, reference compound]",IC50,purified uPAR,~10 nM
same,IC50,uPAR wt,7.8 ± 1 nM
same,IC50,uPAR H47C-N259C,4500 ± 1500 nM
"IRDye800CW-Glu-Glu-NH—CH2—CH2—O—CH2—CH2—O—CH2—CO—NH—CH2—CH2—O—CH2—CH2—O—CH2—CO-Asp-Cha-Glu-(D)Ser-(D)Arg-Tyr-Leu-Glu-Ser-OH ({IRDye800CW′}-EE[AEEA][AEEA]D[Cha]E[dS][dR]YLES-OH) [IRDye800CW-AE354, reference compound]",TBR,[4],3.4
same,normalized TBR (ref: active probe),[4],0.52
"CC1(C)C(/C=C/C=C/C=C/C=C2\N(CCCCS(=O)(=O)O)c3ccc4ccccc4c3C2(C)C)=[N+](CCCCS(=O)(=O)[O-])c2ccc3ccccc3c21 [ICG, indocyanine green, reference compound]",uptake in the tumor,U87MG tumours [3],No specific uptake
same,max radiance for the tumors,U87MG tumours [3],7.51E+06±3.13E+05 radiance efficiency
same,tumor-to-background (TBR) ratio,U87MG tumours [3],1.04±0.04
